Consider 4 molecules from ChEMBL document CHEMBL4732248, “Synthesis and antibacterial activities of marine natural product ianthelliformisamines and subereamine synthetic analogues” (Bioorg Med Chem Lett, 2021).

The test system of data set [1] is Staphylococcus aureus. As to the kind of experiment: Antibacterial activity against Staphylococcus aureus assessed as bacterial growth inhibition measured after 24 hrs by broth dilution assay. The settings on record: for IC50: 24 h; for MIC: time 24 hrs. The data set is classed as functional, organism-based. (In general: Broth dilution looks for growth in wells or tubes with falling amounts of substance.)

The test system of data set [2] is Escherichia coli. As to the kind of experiment: Antibacterial activity against Escherichia coli assessed as bacterial growth inhibition measured after 24 hrs by broth dilution assay. The format is functional, organism-based. The note with it: for IC50: 24 h; for MIC: time 24 hrs.
The subject of data set [3] is Escherichia coli. The experiment in a line: Antibacterial activity against Escherichia coli assessed as minimum concentration required to decrease 90% bacteria measured after 24 hrs by broth dilution assay. The data set is classed as functional.
The subject of data set [4] is Cell membrane. The experiment in a line: Induction of cell membrane permeabilization in Staphylococcus aureus assessed as increase in propidium iodide intake at MIC by propidium iodide staining based assay. The settings on record: time 48.0 hrs, TDE = time-dependent effect.
For data set [5], the system named is Staphylococcus aureus. The experiment in a line: Antibacterial activity against Staphylococcus aureus assessed as minimum concentration required to decrease 90% bacteria measured after 24 hrs by broth dilution assay. The data set is classed as functional.
The nature of data set [6]: Cytotoxicity against human HEK293 cells assessed as viable cells at 50 uM after 48 hrs by calcein-AM staining based fluorescence analysis. The data set is classed as cell-based. The settings on record: read-out: Activity.
Data set [7] relates to Escherichia coli. The experiment in a line: Antibacterial activity against Escherichia coli assessed as zone of inhibition at 25 to 100 ug by disc diffusion method. The format is functional, organism-based. The note with it: dose 25-100 µg. In general terms: A growth-free zone around the sample is the usual read-out of agar diffusion tests.
For data set [8], the system named is Cell membrane. The experiment in a line: Induction of cell membrane permeabilization in Escherichia coli assessed as increase in propidium iodide intake at MIC by propidium iodide staining based assay. The settings on record: TDE = time-dependent effect.
Data set [9] relates to Staphylococcus aureus. The experiment in a line: Antibacterial activity against Staphylococcus aureus assessed as zone of inhibition at 25 to 100 ug by disc diffusion method. The data set is classed as functional, organism-based. The settings on record: dose 25-100 µg.

In brackets after ≈: the same amount, converted by molar mass. Activity calls are given as the source filed them. No cut-off for these calls is given here. Bounds are passed on as bounds.

As a reminder, the IC50 is the midpoint of a concentration-inhibition curve. As to `CC1(C)S[C@@H]2[C@H](NC(=O)[C@H](N)c3ccccc3)C(=O)N2[C@H]1C(=O)O` [AMPICILLIN], the IC50 in the data set on Staphylococcus aureus [1] was determined as 3.8 µM; in the data set on Escherichia coli [2], 33.6 µM.

As a reminder, the MIC is the lowest concentration that inhibits growth of the organism. Consider `COc1c(Br)cc(Br)c(/C=C/C(=O)NCCCNCc2cccc(CNCCCNC(=O)/C=C/c3c(Br)cc(Br)c(OC)c3Br)c2)c1Br`, for which the MIC in the data set on Staphylococcus aureus [1] and in the data set with Escherichia coli [2] was above 200 µM each time.

What is called MBC is the lowest tested concentration that kills the bacteria rather than only halting them. With `COc1cc(/C=C\C(=O)NCCCNCc2cccc(CNCCCNC(=O)/C=C\c3cc(OC)c(Br)cc3Br)c2)c(Br)cc1Br`, the results for the MBC with Escherichia coli [3] and in the data set on Staphylococcus aureus [5] were 25 µM (≈ 22.2 µg/mL) and 50 µM (≈ 44.3 µg/mL), respectively. The half-inhibitory concentration (IC50) is 13.9 µM with Staphylococcus aureus [1] and 37.3 µM in the data set with Escherichia coli [2]. Further, the minimum inhibitory concentration (MIC) in the data set with Staphylococcus aureus [1] is 50 µM (≈ 44.3 µg/mL); in the data set with Escherichia coli [2] it was 25 µM (≈ 22.2 µg/mL). Also, the Activity entry in the data set with Cell membrane [4] and with Cell membrane [8] was “Tde” in each case. Moreover, the viability at 48 h, 50 µM in data set [6] is above 95%. Moreover, the inhibition result in the data set on Escherichia coli [7] and in the data set on Staphylococcus aureus [9] was “Active” throughout.

For the molecule `COc1c(Br)cc(/C=C/C(=O)NCCCNCc2cccc(CNCCCNC(=O)/C=C/c3cc(Br)c(OC)c(Br)c3)c2)cc1Br`, the minimum inhibitory concentration (MIC) in the data set on Staphylococcus aureus [1] and in the data set on Escherichia coli [2] was above 200 µM each time.
